This is an account of results in publication PMC8621172, “Manipulating Estrogenic/Anti-Estrogenic Activity of Triphenylethylenes towards Development of Novel Anti-Neoplastic SERMs” (International Journal of Molecular Sciences, 2021).

Structures are written as SMILES.

The test system of this assay is MDA-MB-468. As to the kind of experiment: NCI five-dose assay, TNBC cell line MDA-MB-468. Format: cell-based, human. Conditions: MDA-MB-468, five-dose assay. As for the experimental part:
All compounds were subjected to the NCI in vitro disease-oriented human cells screening panel assay. The human tumor cell lines of the cancer-screening panel are grown in RPMI 1640 medium containing 5% fetal bovine serum and 2 mM L-glutamine. For a typical screening experiment, cells are inoculated into 96-well microtiter plates in 100 μL at plating densities ranging from 5000 to 40,000 cells/well depending on the doubling time of individual cell lines. After cell inoculation, the microtiter plates are incubated at 37 °C, 5% CO2, 95% air, and 100% relative humidity for 24 h prior to the addition of experimental drugs. After 24 h, two plates of each cell line are fixed in situ with TCA to represent a measurement of the cell population for each cell line at the time of drug addition. Experimental drugs are solubilized in dimethyl sulfoxide at 400-fold the desired final maximum test concentration and stored frozen prior to use. At the time of drug addition, an aliquot of frozen concentrate is thawed and diluted to twice the desired final maximum test concentration with complete medium containing 50 μg/mL gentamicin. […] Bound stain is subsequently solubilized with a 10 mM trizma base, and the absorbance is read on an automated plate reader at a wavelength of 515 nm. […] Three response parameters (GI50, TGI, and LC50) were calculated for each cell line.

For the compound `CCN(CC)CCOc1ccc(C(=C(C)c2ccc(F)c(OC)c2)c2ccc(Cl)cc2)cc1` [Compound 28, E/Z-(2-{4-[1-(4-Chlorophenyl)-2-(4-fluoro-3-methoxyphenyl)-propenyl]-phenoxy}-ethyl)-diethyl-amine], the “anti-proliferative activity compared to TAM” value was “equipotent to TAM”.
